Measured values taken from article PMC10304291, “THC-Reduced Cannabis sativa L.—How Does the Solvent Determine the Bioavailability of Cannabinoids Given Orally?” (Nutrients, 2023).

What was measured:
[1] = rats; 3 or 6 h after oral CBD 50 mg/kg in olive oil; cited from earlier work
[2] = mini-pigs; oral CBD 15 mg/kg; cited from earlier work
[3] = 12 healthy volunteers; chocolate cookies with 0.57 mg/kg CBD + 0.28 mg/kg THC; after 1.5–3 h; cited from earlier work
[4] = Brain pharmacokinetics of CBD and THC after single oral dose of Cannabis sativa extract; conditions: for mean concentration over time / Kp / concentration at 0.5 h / concentration at 1 h / concentration at 2 h / concentration at 4 h / concentration at 6 h / AUC(0-t) / Cmax / MRT: single oral dose of extract 30 mg/kg; for mean concentration over time: Table 7; for Kp: brain / whole blood, AUCbrain:AUC whole blood (AUC0–24 ratio); for concentration at 0.5 h / concentration at 1 h / concentration at 2 h / concentration at 4 h / concentration at 6 h: oral; for AUC(0-t): AUC0–24, brain
[5] = Whole-blood pharmacokinetics of CBD and THC after single oral dose of Cannabis sativa extract; conditions: whole blood, single oral dose of extract 30 mg/kg; for concentration at 0.5 h / concentration at 1 h / concentration at 2 h / concentration at 4 h / concentration at 6 h / concentration at 24 h / AUC(0-t) / Cmax / MRT / Tmax: male, Wistar, rat, 30 mg/kg; for concentration at 0.5 h / concentration at 1 h / concentration at 2 h / concentration at 4 h / concentration at 6 h / concentration at 24 h: oral; for AUC(0-t) / Cmax / MRT / Tmax: po; for AUC(0-t): AUC0–24, whole blood
[6] = male, Wistar, rat, brain, po, 30 mg/kg, Cremophor
[7] = male, Wistar, rat, brain, po, 30 mg/kg, Rapae oleum
[8] = Mean Concentration ± SD, blood, Rapae oleum
[9] = Mean Concentration, blood, Cremophor
[10] = mean concentration over time, Blood/Cremophor, Table 7
[11] = mean concentration over time, Blood/Rapae Oleum, Table 7

SMILES: CCCCCc1cc(O)c2c(c1)OC(C)(C)[C@@H]1CCC(C)=C[C@@H]21 [THC, Δ-9-tetrahydrocannabinol]
- Δ9-THC in the blood after oral CBD [1]: did not detect
- Δ9-THC after oral CBD [2]: did not detect
- whole-blood concentration [3]: about 5 ng/mL
- mean concentration over time ([4]; Brain/Cremophor, 0.5 h): 18.575
- mean concentration over time ([4]; Brain/Cremophor, 1 h): 49.521
- mean concentration over time ([4]; Brain/Cremophor, 2 h): 56.85
- mean concentration over time ([4]; Brain/Cremophor, 4 h): 35.976
- mean concentration over time ([4]; Brain/Cremophor, 6 h): 35.947
- mean concentration over time ([4]; Brain/Cremophor, 24 h): 1.154
- mean concentration over time ([4]; Brain/Rapae oleum, 0.5 h): 3.719
- mean concentration over time ([4]; Brain/Rapae oleum, 1 h): 43.593
- mean concentration over time ([4]; Brain/Rapae oleum, 2 h): 75.768
- mean concentration over time ([4]; Brain/Rapae oleum, 4 h): 27.792
- mean concentration over time ([4]; Brain/Rapae oleum, 6 h): 3.7605
- mean concentration over time ([4]; Brain/Rapae oleum, 24 h): 0
- Kp ([4]; male, Wistar, rat, po, 30 mg/kg, Cremophor): 1.22
- Kp ([4]; male, Wistar, rat, po, 30 mg/kg, Rapae oleum): 3.72
- concentration at 0.5 h ([4]; male, Wistar, rat, brain, 30 mg/kg, Mean Concentration ± SD, Rapae oleum, 0.5 h): 3.72 ± 2.35 ng/g
- concentration at 1 h ([4]; male, Wistar, rat, brain, 30 mg/kg, Mean Concentration ± SD, Rapae oleum, 1 h): 43.6 ± 24.8 ng/g
- concentration at 2 h ([4]; male, Wistar, rat, brain, 30 mg/kg, Mean Concentration ± SD, Rapae oleum, 2 h): 75.8 ± 43.8 ng/g
- concentration at 4 h ([4]; male, Wistar, rat, brain, 30 mg/kg, Mean Concentration ± SD, Rapae oleum, 4 h): 27.8 ± 15.2 ng/g
- concentration at 6 h ([4]; male, Wistar, rat, brain, 30 mg/kg, Mean Concentration ± SD, Rapae oleum, 6 h): 3.76 ± 2.61 ng/g
- concentration at 0.5 h ([4]; male, Wistar, rat, brain, 30 mg/kg, Mean Concentration, Cremophor, 0.5 h): 18.6 ± 11.6 ng/g
- concentration at 1 h ([4]; male, Wistar, rat, brain, 30 mg/kg, Mean Concentration, Cremophor, 1 h): 49.5 ± 9.47 ng/g
- concentration at 2 h ([4]; male, Wistar, rat, brain, 30 mg/kg, Mean Concentration, Cremophor, 2 h): 56.9 ± 7.39 ng/g
- concentration at 4 h ([4]; male, Wistar, rat, brain, 30 mg/kg, Mean Concentration, Cremophor, 4 h): 36 ± 7.45 ng/g
- concentration at 6 h ([4]; male, Wistar, rat, brain, 30 mg/kg, Mean Concentration, Cremophor, 6 h): 35.9 ± 12.7 ng/g
- Tmax ([4]; male, Wistar, rat, brain, po, 30 mg/kg): 4 h
- AUC(0-t) [4, 6]: 656 ng·h/mL
- AUC(0-t) [4, 7]: 553 ng·h/mL
- Cmax [4, 6]: 56.9 ng/g
- Cmax [4, 7]: 75.8 ng/g
- MRT [4, 6]: 5.11 h
- MRT [4, 7]: 7.19 h
- concentration at 0.5 h [5, 8]: 11.9 ± 18 ng/g
- concentration at 1 h [5, 8]: 11 ± 5.21 ng/g
- concentration at 2 h [5, 8]: 24 ± 7.22 ng/g
- concentration at 4 h [5, 8]: 26.2 ± 19.1 ng/g
- concentration at 6 h [5, 8]: 10.3 ± 2.1 ng/g
- concentration at 24 h [5, 8]: 0.445 ± 0.21 ng/g
- concentration at 0.5 h [5, 9]: 13.1 ± 10.9 ng/g
- concentration at 1 h [5, 9]: 18.5 ± 1.98 ng/g
- concentration at 2 h [5, 9]: 14 ± 3.3 ng/g
- concentration at 4 h [5, 9]: 8.01 ± 1.48 ng/g
- concentration at 6 h [5, 9]: 9.04 ± 4.39 ng/g
- concentration at 24 h [5, 9]: 3.79 ± 4.59 ng/g
- concentration at 0.5 h [5, 10]: 13.1 ng/mL
- concentration at 1 h [5, 10]: 18.5 ng/mL
- concentration at 2 h [5, 10]: 14 ng/mL
- concentration at 4 h [5, 10]: 8.01 ng/mL
- concentration at 6 h [5, 10]: 9.04 ng/mL
- concentration at 24 h [5, 10]: 3.79 ng/mL
- concentration at 0.5 h [5, 11]: 11.9 ng/mL
- concentration at 1 h [5, 11]: 11 ng/mL
- concentration at 2 h [5, 11]: 24 ng/mL
- concentration at 4 h [5, 11]: 26.2 ng/mL
- concentration at 6 h [5, 11]: 10.3 ng/mL
- concentration at 24 h [5, 11]: 0.445 ng/mL
- AUC(0-t) ([5]; Cremophor): 217 ng·h/mL
- AUC(0-t) ([5]; Rapae oleum): 186 ng·h/mL
- Cmax ([5]; Cremophor): 18.5 ng/mL
- Cmax ([5]; Rapae oleum): 26.2 ng/mL
- MRT ([5]; Cremophor): 12.7 h
- MRT ([5]; Rapae oleum): 5.75 h
- Tmax ([5]; Cremophor): 1 h
- Tmax ([5]; Rapae oleum): 4 h
- CL ([5]; Cremophor): 2.18 L/h
- Vd ([5]; Cremophor): 28.26 L
- CL ([5]; Rapae oleum): 2.56 L/h
- Vd ([5]; Rapae oleum): 15.15 L
